Test results reported in article PMC9516332 (Frontiers in Oncology, 2022).
Like-named read-outs stand apart in the source and are kept apart here.

Columns and labels:
134 cancer cell lines = assay: Cell viability assay (ATPlite, 72 hours), IC50 on cancer cell line panel
AP-1060 (ETV6-NTRK3) = assay: Cell viability assay; settings: read-out: IC50 in cell proliferation assay

## CNC(=O)c1ccc(-c2cnc3ncc(Cc4ccc5ncccc5c4)n3n2)cc1F [capmatinib]
134 cancer cell lines; HEC-6, read-out: IC50 in cell proliferation assay
  IC50: > 31.6 µM
134 cancer cell lines; Homo sapiens, 769-P, read-out: IC50 in cell proliferation assay
  IC50: > 31.6 µM
134 cancer cell lines; Homo sapiens, 786-0, read-out: IC50 in cell proliferation assay
  IC50: > 31.6 µM
134 cancer cell lines; Homo sapiens, A 172, read-out: IC50 in cell proliferation assay
  IC50: > 31.6 µM
134 cancer cell lines; Homo sapiens, A204, read-out: IC50 in cell proliferation assay
  IC50: > 31.6 µM
134 cancer cell lines; Homo sapiens, A498, read-out: IC50 in cell proliferation assay
  IC50: > 31.6 µM
134 cancer cell lines; Homo sapiens, A549, read-out: IC50 in cell proliferation assay
  IC50: > 31.6 µM
134 cancer cell lines; Homo sapiens, A704, read-out: IC50 in cell proliferation assay
  IC50: > 31.6 µM
134 cancer cell lines; Homo sapiens, A-375, read-out: IC50 in cell proliferation assay
  IC50: > 31.6 µM
134 cancer cell lines; Homo sapiens, A-427, read-out: IC50 in cell proliferation assay
  IC50: 29.6 µM
134 cancer cell lines; Homo sapiens, ACHN, read-out: IC50 in cell proliferation assay
  IC50: > 31.6 µM
134 cancer cell lines; Homo sapiens, AN3-CA, read-out: IC50 in cell proliferation assay
  IC50: > 31.6 µM
134 cancer cell lines; Homo sapiens, ASPC1, read-out: IC50 in cell proliferation assay
  IC50: > 31.6 µM
134 cancer cell lines; Homo sapiens, AU565, read-out: IC50 in cell proliferation assay
  IC50: 5.52 µM
134 cancer cell lines; Homo sapiens, BT-20, read-out: IC50 in cell proliferation assay
  IC50: > 31.6 µM
134 cancer cell lines; Homo sapiens, BT-474, read-out: IC50 in cell proliferation assay
  IC50: > 31.6 µM
134 cancer cell lines; Homo sapiens, BT-549, read-out: IC50 in cell proliferation assay
  IC50: > 31.6 µM
134 cancer cell lines; Homo sapiens, BXPC-3, read-out: IC50 in cell proliferation assay
  IC50: > 31.6 µM
134 cancer cell lines; Homo sapiens, C-33-A, read-out: IC50 in cell proliferation assay
  IC50: > 31.6 µM
134 cancer cell lines; Homo sapiens, CAL-27, read-out: IC50 in cell proliferation assay
  IC50: > 31.6 µM
134 cancer cell lines; Homo sapiens, CCF-STTG1, read-out: IC50 in cell proliferation assay
  IC50: > 31.6 µM
134 cancer cell lines; Homo sapiens, CCRF-CEM, read-out: IC50 in cell proliferation assay
  IC50: 28.3 µM
134 cancer cell lines; Homo sapiens, COLO 205, read-out: IC50 in cell proliferation assay
  IC50: > 31.6 µM
134 cancer cell lines; Homo sapiens, COLO-829, read-out: IC50 in cell proliferation assay
  IC50: > 31.6 µM
134 cancer cell lines; Homo sapiens, DLD-1, read-out: IC50 in cell proliferation assay
  IC50: > 31.6 µM
134 cancer cell lines; Homo sapiens, DU-145, read-out: IC50 in cell proliferation assay
  IC50: > 31.6 µM
134 cancer cell lines; Homo sapiens, DU-4475, read-out: IC50 in cell proliferation assay
  IC50: 21.4 µM
134 cancer cell lines; Homo sapiens, Daoy, read-out: IC50 in cell proliferation assay
  IC50: > 31.6 µM
134 cancer cell lines; Homo sapiens, DoTc2-4510, read-out: IC50 in cell proliferation assay
  IC50: > 31.6 µM
134 cancer cell lines; Homo sapiens, EOL1, read-out: IC50 in cell proliferation assay
  IC50: > 31.6 µM
134 cancer cell lines; Homo sapiens, FaDu, read-out: IC50 in cell proliferation assay
  IC50: > 31.6 µM
134 cancer cell lines; Homo sapiens, G-361, read-out: IC50 in cell proliferation assay
  IC50: > 31.6 µM
134 cancer cell lines; Homo sapiens, HCC827, read-out: IC50 in cell proliferation assay
  IC50: 8.39 µM
134 cancer cell lines; Homo sapiens, HCC4006, read-out: IC50 in cell proliferation assay
  IC50: > 31.6 µM
134 cancer cell lines; Homo sapiens, HCT-15, read-out: IC50 in cell proliferation assay
  IC50: > 31.6 µM
134 cancer cell lines; Homo sapiens, HCT-116, read-out: IC50 in cell proliferation assay
  IC50: > 31.6 µM
134 cancer cell lines; Homo sapiens, HEC-1, read-out: IC50 in cell proliferation assay
  IC50: > 31.6 µM
134 cancer cell lines; Homo sapiens, HEC-1B, read-out: IC50 in cell proliferation assay
  IC50: > 31.6 µM
134 cancer cell lines; Homo sapiens, HL-60, read-out: IC50 in cell proliferation assay
  IC50: > 31.6 µM
134 cancer cell lines; Homo sapiens, HT, read-out: IC50 in cell proliferation assay
  IC50: > 31.6 µM
134 cancer cell lines; Homo sapiens, HT-1080, read-out: IC50 in cell proliferation assay
  IC50: > 31.6 µM
134 cancer cell lines; Homo sapiens, Hs746T, read-out: IC50 in cell proliferation assay
  IC50: 0.00123 µM
134 cancer cell lines; Homo sapiens, Hs-578T, read-out: IC50 in cell proliferation assay
  IC50: > 31.6 µM
134 cancer cell lines; Homo sapiens, HuTu80, read-out: IC50 in cell proliferation assay
  IC50: > 31.6 µM
134 cancer cell lines; Homo sapiens, J82, read-out: IC50 in cell proliferation assay
  IC50: > 31.6 µM
134 cancer cell lines; Homo sapiens, Jurkat E6.1, read-out: IC50 in cell proliferation assay
  IC50: > 31.6 µM
134 cancer cell lines; Homo sapiens, K562, read-out: IC50 in cell proliferation assay
  IC50: > 31.6 µM
134 cancer cell lines; Homo sapiens, KATO III, read-out: IC50 in cell proliferation assay
  IC50: > 31.6 µM
134 cancer cell lines; Homo sapiens, KG-1, read-out: IC50 in cell proliferation assay
  IC50: > 31.6 µM
134 cancer cell lines; Homo sapiens, KLE, read-out: IC50 in cell proliferation assay
  IC50: > 31.6 µM
134 cancer cell lines; Homo sapiens, KMS-11, read-out: IC50 in cell proliferation assay
  IC50: 9.3 µM
134 cancer cell lines; Homo sapiens, KU812, read-out: IC50 in cell proliferation assay
  IC50: > 31.6 µM
134 cancer cell lines; Homo sapiens, Kasumi 1, read-out: IC50 in cell proliferation assay
  IC50: 25 µM
134 cancer cell lines; Homo sapiens, LC-2-ad, read-out: IC50 in cell proliferation assay
  IC50: > 31.6 µM
134 cancer cell lines; Homo sapiens, LNCaP-Clone-FGC, read-out: IC50 in cell proliferation assay
  IC50: > 31.6 µM
134 cancer cell lines; Homo sapiens, LS174T, read-out: IC50 in cell proliferation assay
  IC50: > 31.6 µM
134 cancer cell lines; Homo sapiens, LS-411N, read-out: IC50 in cell proliferation assay
  IC50: > 31.6 µM
134 cancer cell lines; Homo sapiens, LoVo, read-out: IC50 in cell proliferation assay
  IC50: 0.00186 µM
134 cancer cell lines; Homo sapiens, MCF7, read-out: IC50 in cell proliferation assay
  IC50: > 31.6 µM
134 cancer cell lines; Homo sapiens, MDA-MB-231, read-out: IC50 in cell proliferation assay
  IC50: > 31.6 µM
134 cancer cell lines; Homo sapiens, MDA-MB-453, read-out: IC50 in cell proliferation assay
  IC50: > 31.6 µM
134 cancer cell lines; Homo sapiens, MDA-MB-468, read-out: IC50 in cell proliferation assay
  IC50: 30.8 µM
134 cancer cell lines; Homo sapiens, MG-63, read-out: IC50 in cell proliferation assay
  IC50: > 31.6 µM
134 cancer cell lines; Homo sapiens, MIA PaCa-2, read-out: IC50 in cell proliferation assay
  IC50: > 31.6 µM
134 cancer cell lines; Homo sapiens, MKN-45, read-out: IC50 in cell proliferation assay
  IC50: 0.004 µM
134 cancer cell lines; Homo sapiens, MOLM-13, read-out: IC50 in cell proliferation assay
  IC50: 6.01 µM
134 cancer cell lines; Homo sapiens, MOLT-4, read-out: IC50 in cell proliferation assay
  IC50: > 31.6 µM
134 cancer cell lines; Homo sapiens, MV4-11, read-out: IC50 in cell proliferation assay
  IC50: 1.95 µM
134 cancer cell lines; Homo sapiens, MeWo, read-out: IC50 in cell proliferation assay
  IC50: > 31.6 µM
134 cancer cell lines; Homo sapiens, NCCIT, read-out: IC50 in cell proliferation assay
  IC50: > 31.6 µM
134 cancer cell lines; Homo sapiens, NCI-H82, read-out: IC50 in cell proliferation assay
  IC50: > 31.6 µM
134 cancer cell lines; Homo sapiens, NCI-H460, read-out: IC50 in cell proliferation assay
  IC50: > 31.6 µM
134 cancer cell lines; Homo sapiens, NCI-H661, read-out: IC50 in cell proliferation assay
  IC50: > 31.6 µM
134 cancer cell lines; Homo sapiens, NCI-H716, read-out: IC50 in cell proliferation assay
  IC50: > 31.6 µM
134 cancer cell lines; Homo sapiens, NCI-H1650, read-out: IC50 in cell proliferation assay
  IC50: 9.45 µM
134 cancer cell lines; Homo sapiens, NCI-H1975, read-out: IC50 in cell proliferation assay
  IC50: > 31.6 µM
134 cancer cell lines; Homo sapiens, NCI-H2228, read-out: IC50 in cell proliferation assay
  IC50: > 31.6 µM
134 cancer cell lines; Homo sapiens, OVCAR-3, read-out: IC50 in cell proliferation assay
  IC50: > 31.6 µM
134 cancer cell lines; Homo sapiens, PFSK-1, read-out: IC50 in cell proliferation assay
  IC50: > 31.6 µM
134 cancer cell lines; Homo sapiens, RL95-2, read-out: IC50 in cell proliferation assay
  IC50: > 31.6 µM
134 cancer cell lines; Homo sapiens, RPMI-7951, read-out: IC50 in cell proliferation assay
  IC50: > 31.6 µM
134 cancer cell lines; Homo sapiens, RS4-11, read-out: IC50 in cell proliferation assay
  IC50: > 31.6 µM
134 cancer cell lines; Homo sapiens, Rec1, read-out: IC50 in cell proliferation assay
  IC50: 3.02 µM
134 cancer cell lines; Homo sapiens, SHP77, read-out: IC50 in cell proliferation assay
  IC50: > 31.6 µM
134 cancer cell lines; Homo sapiens, SK-BR-3, read-out: IC50 in cell proliferation assay
  IC50: > 31.6 µM
134 cancer cell lines; Homo sapiens, SK-N-AS, read-out: IC50 in cell proliferation assay
  IC50: > 31.6 µM
134 cancer cell lines; Homo sapiens, SK-N-FI, read-out: IC50 in cell proliferation assay
  IC50: > 31.6 µM
134 cancer cell lines; Homo sapiens, SK-N-MC, read-out: IC50 in cell proliferation assay
  IC50: > 31.6 µM
134 cancer cell lines; Homo sapiens, SK-N-SH, read-out: IC50 in cell proliferation assay
  IC50: 9.7 µM
134 cancer cell lines; Homo sapiens, SNU-5, read-out: IC50 in cell proliferation assay
  IC50: 0.000951 µM
134 cancer cell lines; Homo sapiens, SNU-16, read-out: IC50 in cell proliferation assay
  IC50: > 31.6 µM
134 cancer cell lines; Homo sapiens, SNU-C2B, read-out: IC50 in cell proliferation assay
  IC50: > 31.6 µM
134 cancer cell lines; Homo sapiens, SU-DHL-1, read-out: IC50 in cell proliferation assay
  IC50: > 31.6 µM
134 cancer cell lines; Homo sapiens, SU-DHL-6, read-out: IC50 in cell proliferation assay
  IC50: > 31.6 µM
134 cancer cell lines; Homo sapiens, SUP-T1, read-out: IC50 in cell proliferation assay
  IC50: > 31.6 µM
134 cancer cell lines; Homo sapiens, SW48, read-out: IC50 in cell proliferation assay
  IC50: > 31.6 µM
134 cancer cell lines; Homo sapiens, SW480, read-out: IC50 in cell proliferation assay
  IC50: > 31.6 µM
134 cancer cell lines; Homo sapiens, SW626, read-out: IC50 in cell proliferation assay
  IC50: > 31.6 µM
134 cancer cell lines; Homo sapiens, SW780, read-out: IC50 in cell proliferation assay
  IC50: > 31.6 µM
134 cancer cell lines; Homo sapiens, SW837, read-out: IC50 in cell proliferation assay
  IC50: 7.23 µM
134 cancer cell lines; Homo sapiens, SW872, read-out: IC50 in cell proliferation assay
  IC50: > 31.6 µM
134 cancer cell lines; Homo sapiens, SW900, read-out: IC50 in cell proliferation assay
  IC50: > 31.6 µM
134 cancer cell lines; Homo sapiens, SW948, read-out: IC50 in cell proliferation assay
  IC50: > 31.6 µM
134 cancer cell lines; Homo sapiens, SW982, read-out: IC50 in cell proliferation assay
  IC50: > 31.6 µM
134 cancer cell lines; Homo sapiens, SW-620, read-out: IC50 in cell proliferation assay
  IC50: > 31.6 µM
134 cancer cell lines; Homo sapiens, T98G, read-out: IC50 in cell proliferation assay
  IC50: > 31.6 µM
134 cancer cell lines; Homo sapiens, TCC-SUP, read-out: IC50 in cell proliferation assay
  IC50: > 31.6 µM
134 cancer cell lines; Homo sapiens, THP-1, read-out: IC50 in cell proliferation assay
  IC50: > 31.6 µM
134 cancer cell lines; Homo sapiens, U2OS, read-out: IC50 in cell proliferation assay
  IC50: > 31.6 µM
134 cancer cell lines; Homo sapiens, U-87 MG, read-out: IC50 in cell proliferation assay
  IC50: 0.023 µM
134 cancer cell lines; Homo sapiens, U-118-MG, read-out: IC50 in cell proliferation assay
  IC50: > 31.6 µM
134 cancer cell lines; Homo sapiens, UMUC3, read-out: IC50 in cell proliferation assay
  IC50: > 31.6 µM
134 cancer cell lines; Hs766T, read-out: IC50 in cell proliferation assay
  IC50: > 31.6 µM
134 cancer cell lines; L-82, read-out: IC50 in cell proliferation assay
  IC50: > 31.6 µM
134 cancer cell lines; Rh30, read-out: IC50 in cell proliferation assay
  IC50: 7.37 µM
AP-1060 (ETV6-NTRK3)
  IC50: > 31.6 µM
